Laboratory results: patent US8198322B2, “Apoptotic and anti-tumor activities of metallo-salens” (Board of Regents, The University of Texas System, priority 2008, dated 2012)
Values joined by “and” are separate entries in the source; they are usually repeats but may differ in a detail not shown here. Identical values can stand only once. Like-named read-outs stand apart in the source and are kept apart here.

Legend:
[1] = system: MCF-7 cells; experiment: Cell viability assay (MTT, DIC microscopy) at 20 μM; assay type: cell-based, human; design: key to Summary of cell viability activities (active/inactive): Y and N indicates active and inactive compounds respectively; Y and N indicates active and inactive compounds respectively; conditions: for effect on cell viability (in words): up to 96 hrs; for Summary of cell viability activities (active/inactive): MCF-7 cells, 20 μM, 24-96 hrs, MTT
Method: (A-F): MCF-7 cells were treated with 20 μM metallo-salens and incubated for varying time periods (24-96 hrs). Viable cells were quantified using MTT assay. The percent viable cells (relative to control, treated with equivalent amount of DMSO) were plotted as a function of time for each compound. This experiment was repeated twice with 8 replicate treatments each time. Bars indicates standard errors of mean (SEM). Curves 1-42 in FIGS. 2A-2F, represent the viability curves for compounds 1-42 respectively. (A′-F′) DIC images of the corresponding MCF-7 cells that were treated with DMSO (control panel), or with 20 μM Mn(III)- and Fe(III)-salen complexes for 72 hrs showing the visual effects on cellular morphology and growth/death.
Cell viability assay: Approximately 10,000 MCF-7 cells were seeded into each well of a 96 well micro titer plate and incubated 24 hrs in presence of 150 μL DMEM. An additional 50 μL DMEM containing required amount of each metallo-salen to obtain 20 μM final concentrations (in 200 μL final volume) in 8 replicate wells were added. Control wells were treated with equivalent amount of dimethylsulfoxide (DMSO). The viability of the cells was assayed at 24, 48, 72 and 96 hrs post treatment by using both microscopic observation and MTT assay. For microscopic observation cells were stained with trypan blue for at least 10 minute and observed under Differential Interference Contrast (DIC) setting of a fluorescence microscope (Nikon Eclipse TE2000-U, Japan). The MTT assay was performed as described previously^42. In brief, 20 μL MTT (5 mg/ml in PBS) was added into each wells and incubated for 2 hrs under normal growth condition to allow the viable cell to convert MTT to formazan. Then the media was discarded and formazan crystals were dissolved by adding 100 μL of DMSO and incubating 2 hrs with continuous shaking. The absorbance of the lysates were directly measured at 560 nm using a micro plate reader (Fluostar-omega, BMG Labtech). The absorbance values (which are proportional to the viable cell) are plotted as a function of time. The studies were repeated twice with 8 replicates each time.
The inventors studied the effect of Mn(III)-salen and Fe(III)-salen derivatives on the cell viability of cultured breast cancer cells MCF-7 in order to investigate the biochemical effects of the derivatives. The cells were incubated alone or with 20 μM of each of the metallo-salen derivatives separately (compounds 1-45) for varying time periods (0-96 hrs). The viable cells were quantified using MTT assay and the percent of cell survived (relative to the control untreated cells) were plotted against time (FIGS. 2A-2F).

[2] = system: colon cancer xenograft (CCL228 cells); experiment: Colon cancer xenograft experiment; assay type: in vivo; conditions: Athymic nude nu/nu mice, intraperitoneal, 10 mg/kg, twice a week
Method: Athymic nude nu/nu mice carrying the colon cancer xenograft were administered with 10 mg/kg of 3,3′-dimethoxy Mn(III)-salen (compound 6), 3,3′-dihydroxy Mn(III)-salphen (compound 9) and 3,3′-dihydroxy Mn(III)-salnaphen (compound 16) at 4 days interval, for over a period of 21 days. Tumor diameters were measured using a slide caliper prior to each administration and plotted (left panel). Bar indicated standard deviation (3 replicate experiments).
All the animal experiments were carried out using the IACUC approved protocol. For examining the efficacies of metallo-salen complexes, the inventors administered selected metallo-salen complexes in PBS intraperitoneally on Athymic nude nu/nu mice (Harlan) carrying the colon cancer xenografts. In brief, 2×10^6 human colon cancer cells (CCL228 cell in 100 μl of PBS) were injected subcutaneously (near the right back limb). Animals were examined daily for signs of tumor growth and behavior. Once the tumor size reached ˜25 mm^2 (2 to 3 weeks after injection of cells) the inventors administered the metallo-salen complexes intraperitoneally (in PBS solution, twice in a week, in three parallel replicates). Control mice were injected with equal volume of the diluents (PBS) alone. Prior to every new treatment with metallo-salen complexes, bi-dimensional measurements were carried out using calipers and cross-sectional area (tumor size) and data were plotted (FIG. 8A).
Xenograft experiment: To test the efficacy in controlling the tumor growth, the inventors administered compound compounds, 6, 9 and 16, intraperitoneally to six week old Athymic nude nu/nu mice carrying the colon cancer xenograft. In brief, 2×10^6 human colon cancer cells (CCL228 cell in 100 μl of PBS) were injected subcutaneously (near the right back limb). Animals were examined daily for signs of tumor growth and behavior. Once the tumor size reached ˜25 mm^2 (2 to 3 weeks after injection of cells) the inventors administered compounds 6, 9, and 16 intraperitoneally (separately in PBS solution, twice a week, 10 mg/kg dose). Every study was performed in three parallel replicates. […]

[3] = system: MCF-7 cells; experiment: Cytotoxicity assay (IC50 measurement, MTT); assay type: cell-based, human; conditions: MCF-7, 96 hrs
Method: Cytotoxicity assay (IC50 measurement): The cytotoxicity of Fe(III)-salen and its derivatives was determined by using MTT assay as described previously^42. In brief, approximately 10,000 MCF-7 cells were seeded into each well of a 96 well micro titer plate and incubated 24 hrs in presence of 150 μL DMEM. An additional 50 μL DMEM containing required amount of each metallo-salen to obtain 0.05 to 60 μM final concentration (in 200 μL final volume) in 8 replicate wells were added. Control wells were treated with equivalent amount of DMSO. After 96 hrs of incubation, 20 μL of MTT (5 mg/mL) was added into each well and cell viability was assayed by measuring the formazan absorption at 560 nm as described above. The absorbance (at 560 nm) values were plotted against concentration of metallo-salens to determine the IC50. The studies were repeated twice with 8 replicates each time.
The concentration of the metal-complexes at which the conversion of MTT to formazan by viable cells is reduced by 50% compared to control cells is defined as the IC50. The percent of cell survival relative to the control cells were plotted as a function of concentration of the metallo-salen derivatives.

[4] = Animal toxicity; assay type: in vivo; conditions: C57B mice, intraperitoneal, 5, 10 and 20 mg/kg, twice a week for 4 weeks
Method: The inventors intraperitoneally administered the Mn(III)-salen complexes (in PBS) at three different dozes (5, 10 and 20 mg/kg of mice, 6 weeks old normal C57B mice). The mice were treated twice a week for 4 weeks. After treatment, sign of toxicity were monitored (such as weight loss, mobility), animal behavior and health on a daily basis.

[5] = system: MCF-7 and CCL228 cancer cells over MCF-10 normal breast epithelial cells; experiment: IC50 comparison of cancer versus normal cell lines (MTT, FIG. 4); assay type: cell-based, human; conditions: ratio of IC50 values
Method: IC50 values for each biochemically compounds were determined using MTT assay in three different cell lines that include MCF-7 (breast cancer), CCL228 (colon cancer) and MCF-10 (normal breast epithelial cells). IC50 values were for comparison for each compound (compounds 1-45) as marked.
To study the anti-tumor drug potential of Mn(III)- and Fe(III)-metallo salen derivatives, the inventors analyzed IC50 values for the each of the active compounds towards different cancer as well as normal cells. The IC50 values for different active compounds (compounds 1-42) for three different cell lines, MCF-7 (breast cancer), CCL228 (colon cancer) and MCF-10 (non malignant breast cells), are plotted in the bar graph in FIG. 4.

[6] = read-out: IC50 values for different complexes in MCF-7 cells
[7] = read-out: IC50 toward MCF-7 cells

Compound: CC(=O)[O-].COc1ccc(C=NCCN=Cc2ccc(OC)cc2[O-])c([O-])c1.[Mn+3] [compound 6, 4,4′-Dimethoxysalen Mn(III) acetate]
- effect on cell viability (in words) ([1]; MCF-7, 20 μM): induced efficient cell death
- Summary of cell viability activities (active/inactive) [1]: Y (6)
- tumor growth in colon cancer xenograft [2]: complete arrest of tumor growth
- IC50 [3, 6]: 12.3 µM
- animal toxicity [4]: did not have any significant animal toxicity
- survival and body weight [4]: survived without significant loss of body weight

Compound: COc1cccc(C=Nc2cc3ccccc3cc2N=Cc2cccc(OC)c2[O-])c1[O-].[Cl-].[Fe+3] [compound 40, 3,3′-Dimethoxysalnaphen Fe(III) chloride]
- Summary of cell viability activities (active/inactive) [1]: Y (40
- IC50 [3, 6]: 1.5 µM

Compound: CC(=O)[O-].[Mn+3].[O-]c1c(O)cccc1C=Nc1cc2ccccc2cc1N=Cc1cccc(O)c1[O-] [compound 16, 3,3′-Dihydroxysalnaphen Mn(III) acetate]
- Summary of cell viability activities (active/inactive) [1]: Y (16)
- tumor growth in colon cancer xenograft [2]: tumor size were grown exponentially
- IC50 [3, 6]: 40.3 µM
- animal toxicity [4]: did not have any significant animal toxicity
- survival and body weight [4]: survived without significant loss of body weight

Compound: CC(=O)[O-].[Mn+3].[O-]c1ccc(O)cc1C=NCCN=Cc1cc(O)ccc1[O-] [compound 4, 5,5′-Dihydroxysalen Mn(III) acetate]
- effect on cell viability (in words) ([1]; MCF-7, 20 μM): effective in inducing cell death
- Summary of cell viability activities (active/inactive) [1]: Y (4)
- IC50 [3, 6]: 43.1 µM

Compound: CC(=O)[O-].[Mn+3].[O-]c1ccccc1C=Nc1cc2ccccc2cc1N=Cc1ccccc1[O-] [compound 15, Mn(III)-salnaphen acetate]
- effect on cell viability (in words) ([1]; MCF-7, 20 μM): most effective on inducing cell death
- Summary of cell viability activities (active/inactive) [1]: Y (15)
- IC50 [3, 6]: 15.5 µM and 15.6 µM

Compound: CC(=O)[O-].[Mn+3].[O-]c1ccc(O)cc1C=Nc1ccccc1N=Cc1cc(O)ccc1[O-] [compound 11, 5,5′-Dihydroxysalphen Mn(III) acetate]
- effect on cell viability (in words) ([1]; MCF-7, 20 μM): effective in inducing cell death
- Summary of cell viability activities (active/inactive) [1]: Y (11)
- IC50 [3, 6]: 45.6 µM

Compound: [Cl-].[Fe+3].[O-]c1ccccc1C=NCCN=Cc1ccccc1[O-] [compound 22, Fe(III)-salen chloride]
- effect on cell viability (in words) ([1]; MCF-7, 20 μM): highly effective in killing MCF-7 cells
- Summary of cell viability activities (active/inactive) [1]: Y (22)
- IC50 [3, 6]: 22.4 µM

Compound: COc1ccc([O-])c(C=NCCN=Cc2cc(OC)ccc2[O-])c1.[Cl-].[Fe+3] [compound 28, 5,5′-Dimethoxysalen Fe(III) chloride]
- cells killed in less than 24 hrs ([1]; MCF-7, 20 μM, less than 24 hrs): more than 80%
- effect on cell viability (in words) ([1]; MCF-7, 20 μM): highly effective in killing MCF-7 cells
- Summary of cell viability activities (active/inactive) [1]: Y (28)
- IC50 [3, 6]: 4.56 µM

Compound: CC(=O)[O-].[Mn+3].[O-]c1ccccc1C=NCCN=Cc1ccccc1[O-] [compound 1, Mn(III)-salen acetate]
- Summary of cell viability activities (active/inactive) [1]: Y^b (1)
- IC50 [3, 6]: 20.4 µM and 20.5 µM

Compound: CC(=O)[O-].COc1cccc(C=NCCN=Cc2cccc(OC)c2[O-])c1[O-].[Mn+3] [compound 5, 3,3′-Dimethoxysalen Mn(III) acetate]
- Summary of cell viability activities (active/inactive) [1]: Y (5)
- IC50 [3, 6]: 17.7 µM

Compound: [Cl-].[Fe+3].[O-]c1ccccc1C=Nc1cc2ccccc2cc1N=Cc1ccccc1[O-] [compound 36, Fe(III)-salnaphen chloride]
- Summary of cell viability activities (active/inactive) [1]: Y (36)
- IC50 [3, 7]: 0.54 µM

Compound: CC(=O)[O-].[Mn+3].[O-]c1c(O)cccc1C=Nc1ccccc1N=Cc1cccc(O)c1[O-] [compound 9, 3,3′-Dihydroxysalphen Mn(III) acetate]
- Summary of cell viability activities (active/inactive) [1]: Y (9)
- tumor growth in colon cancer xenograft [2]: complete arrest of tumor growth
- IC50 [3, 6]: 17.3 µM
- animal toxicity [4]: did not have any significant animal toxicity
- survival and body weight [4]: survived without significant loss of body weight

Compound: COc1cccc(C=Nc2ccccc2N=Cc2cccc(OC)c2[O-])c1[O-].[Cl-].[Fe+3] [compound 33, 3,3′-Dimethoxysalphen Fe(III) chloride]
- Summary of cell viability activities (active/inactive) [1]: Y (33)
- IC50 [3, 6]: 4.15 µM

Compound: CC(=O)[O-].COc1ccc([O-])c(C=Nc2cc3ccccc3cc2N=Cc2cc(OC)ccc2[O-])c1.[Mn+3] [compound 21, 5,5′-Dimethoxysalnaphen Mn(III) acetate]
- Summary of cell viability activities (active/inactive) [1]: Y (21)
- IC50 [3, 6]: 19.3 µM

Compound: [Cl-].[Fe+3].[O-]c1c(O)cccc1C=Nc1cc2ccccc2cc1N=Cc1cccc(O)c1[O-] [compound 37, 3,3′-Dihydroxysalnaphen Fe(III) chloride]
- Summary of cell viability activities (active/inactive) [1]: Y (37)
- IC50 [3, 7]: 0.22 µM

Compound: COc1ccc(C=NCCN=Cc2ccc(OC)cc2[O-])c([O-])c1.[Cl-].[Fe+3] [compound 27, 4,4′-Dimethoxysalen Fe(III) chloride]
- time to induce similar extent (more than 80%) of cell death ([1]; MCF-7, 20 μM): about 72 hrs
- effect on cell viability (in words) ([1]; MCF-7, 20 μM): highly effective in killing MCF-7 cells
- Summary of cell viability activities (active/inactive) [1]: Y (27)
- IC50 [3, 6]: 12.4 µM
- selectivity in killing cancer cells (MCF-7 and CCL228) over normal cells (MCF-10) [5]: about 4 fold
